Source: patent US20040241154A1, “Secretin for the treatment of asthma” (priority 2001, published 2004)

Columns and labels:
[1] = test system: human tertiary bronchus; assay: Short circuit current across human tertiary bronchus wall in modified Ussing chamber
[2] = test system: primary human, tertiary bronchial epithelial cells; assay: Cl- efflux from primary human tertiary bronchial epithelial cells (MQAE fluorescence); type: cell-based
Description: Ionic movement in tertiary bronchial epithelial cells was further characterised with the use of the Cl^− specific fluorescent probe MQAE (n-(ethoxycarbonylmethyl)-6-methoxyquinolinium bromide; Molecular Probes). In brief, primary human, tertiary bronchial epithelial cells were isolated as described above and cultured in a 96 well plate. On reaching confluency, cells were loaded overnight with 4 mM MQAE. Cells were washed in a chloride containing HEPES buffer, before passive Cl^− efflux was initiated by the addition of a Cl^− free buffer.
The experiment of example 3a above was repeated using a range of secretin concentrations from 1 to 1000 nM.

[3] = test system: epithelial cells derived from the human tertiary bronchus; assay: Short circuit current in cultured tertiary bronchial epithelial cell monolayers in modified Ussing chamber; type: cell-based
Excerpt: Functional effects of the secretin receptor were probed in epithelial cells derived from the human tertiary bronchus. In brief, tertiary bronchial epithelial were isolated by overnight protease digestion and then cultured until confluency on Snapwell (Costar) permeable supports. The supports were mounted in a modified Ussing chamber, and both luminal and basolateral membranes were bathed in oxygenated Krebs extracellular solution. The cells were voltage clamped to zero to allow changes in short circuit current in response to secretin to be measured. As previously described, 10 μM amiloride was initially added to the luminal membrane (FIG. 4, point a) followed by the addition of 100 nM secretin to the luminal membrane (FIG. 4, point b).

[4] = test system: tertiary bronchial rings; assay: Relaxation of carbachol precontracted human tertiary bronchial rings in organ bath
Description: The bronchorelaxant properties of secretin was examined in vitro, in the tertiary bronchus of non-diseased tissue. […] Tissues were precontracted with carbachol at the concentration being that which caused a contraction approximately 60-70% of the maximum, and a cumulative concentration-effect contractile curve (CEC) to secretin (0.01 μM to 3 μM) was constructed on each preparation.

[5] = 10 μM ATP or UTP added to apical membrane of the lung epithelium

Nc1ncnc2c1ncn2[C@@H]1O[C@H](COP(=O)(O)OP(=O)(O)OP(=O)(O)O)[C@@H](O)[C@H]1O [ATP]
ionic movement (short circuit current) [1, 5]: stimulate a similar ionic movement of similar magnitude

O=C(O)c1cc([N+](=O)[O-])ccc1NCCCc1ccccc1 [NPPB, 5-nitro-2-(3-phenylpropyl-amino)benzoic acid]
effect on 100 nM secretin mediated changes in fluorescence ([2]; 100 μM NPPB): abolished

O=c1ccn([C@@H]2O[C@H](COP(=O)(O)OP(=O)(O)OP(=O)(O)O)[C@@H](O)[C@H]2O)c(=O)[nH]1 [UTP]
ionic movement (short circuit current) [1, 5]: stimulate a similar ionic movement of similar magnitude

COc1ccc(Cl)cc1C(=O)NCCc1ccc(S(=O)(=O)NC(=O)NC2CCCCC2)cc1 [glibenclamide]
suppression of secretin mediated ionic movement ([3]; 500 μM glibenclamide after 100 nM secretin): failed to suppress secretin mediated ionic movement

CC(C)C[C@H](NC(=O)CNC(=O)[C@H](CCC(N)=O)NC(=O)[C@H](CC(C)C)NC(=O)[C@H](CC(C)C)NC(=O)[C@H](CCCNC(=N)N)NC(=O)[C@H](CCC(N)=O)NC(=O)[C@H](CC(C)C)NC(=O)[C@H](CCCNC(=N)N)NC(=O)[C@H](C)NC(=O)CNC(=O)[C@H](CCC(=O)O)NC(=O)[C@H](CCCNC(=N)N)NC(=O)[C@H](CC(C)C)NC(=O)[C@H](CCCNC(=N)N)NC(=O)[C@H](CO)NC(=O)[C@H](CC(C)C)NC(=O)[C@H](CCC(=O)O)NC(=O)[C@H](CO)NC(=O)[C@@H](NC(=O)[C@H](Cc1ccccc1)NC(=O)[C@@H](NC(=O)CNC(=O)[C@H](CC(=O)O)NC(=O)[C@H](CO)NC(=O)[C@@H](N)Cc1c[nH]cn1)[C@@H](C)O)[C@@H](C)O)C(=O)N[C@H](C(N)=O)C(C)C [secretin]
Cl- efflux (changes in MQAE fluorescence) ([2]; 12.5 nM secretin): stimulated Cl^− efflux | Cl- efflux (changes in MQAE fluorescence) ([2]; 100 nM secretin): stimulated Cl^− efflux | Maximal secretin stimulated Cl- efflux ([2]; compared with Prostaglandin E2 (10 μM), secretin 1 to 1000 nM): of a similar magnitude to that observed to Prostaglandin E2 | Log EC50 (M), Cl- efflux ([2]; printed as negative Log EC50, mean ± s.e.mean, 2 to 6 independent experiments, cells from 6 donors, normalised to PGE2): -7.64±0.24 M | ionic movement (short circuit current) ([1]; 3 μM human secretin added to luminal membrane after 10 μM amiloride, non-asthma donors): stimulate ionic movement in a manner consistent with the movement of a negatively charged ion | mean pEC50, relaxation ([4]; carbachol precontracted tertiary bronchial rings): 6.8±0.2 | relaxations of the carbachol-evoked tone ([4]; secretin 0.01 μM to 3 μM, in 7 of the 8 preparations tested): concentration-dependent relaxations | mean relaxation as % of the relaxation observed to isoprenaline (1 μM) ([4]; secretin 3 μM, n=7 preparations from 4 donors): 37±11% | ionic movement (short circuit current) ([3]; 100 nM secretin added to luminal membrane after 10 μM amiloride): stimulated ionic movement in a manner consistent with the movement of a negatively charged ion
